ChEMBL document CHEMBL1127541, “3,4-Dihydro-3-amino-2H-1-benzopyran derivatives as 5-HT1A receptor ligands and potential anxiolytic agents. 1. Synthesis and structure--activity relationship studies” (J Med Chem, 1994)

Key:
[1] = molecular target: 5-hydroxytryptamine receptor 2A (Bos taurus, UniProt Q75Z89); test: Binding affinity towards 5-hydroxytryptamine 2 receptor in calf frontal cortex; assay type: tissue-based
D(1A) dopamine receptor = D(1A) dopamine receptor (Bos taurus, UniProt Q95136); test: Binding affinity towards dopamine receptor D1 in calf striatum; assay type: tissue-based
Chain of D(1A) dopamine receptor (Q95136 whole entry): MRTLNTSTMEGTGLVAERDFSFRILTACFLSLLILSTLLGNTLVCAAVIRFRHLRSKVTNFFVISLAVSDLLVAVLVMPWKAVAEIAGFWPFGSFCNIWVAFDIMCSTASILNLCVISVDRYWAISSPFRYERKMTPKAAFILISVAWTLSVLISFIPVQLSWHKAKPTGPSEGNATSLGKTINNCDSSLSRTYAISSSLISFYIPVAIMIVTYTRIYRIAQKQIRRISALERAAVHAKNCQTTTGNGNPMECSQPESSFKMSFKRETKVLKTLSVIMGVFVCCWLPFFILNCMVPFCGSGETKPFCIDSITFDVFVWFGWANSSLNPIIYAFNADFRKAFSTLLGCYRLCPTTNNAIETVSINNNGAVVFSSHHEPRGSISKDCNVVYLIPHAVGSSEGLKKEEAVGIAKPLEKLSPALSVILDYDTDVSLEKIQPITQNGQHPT

[2] = molecular target: 5-hydroxytryptamine receptor 1B (Rattus norvegicus, UniProt P28564); test: Binding affinity for 5-hydroxytryptamine 1B receptor in rat cortex, striatum and globus pallidus; assay type: tissue-based
Chain of 5-hydroxytryptamine receptor 1B (P28564 whole entry): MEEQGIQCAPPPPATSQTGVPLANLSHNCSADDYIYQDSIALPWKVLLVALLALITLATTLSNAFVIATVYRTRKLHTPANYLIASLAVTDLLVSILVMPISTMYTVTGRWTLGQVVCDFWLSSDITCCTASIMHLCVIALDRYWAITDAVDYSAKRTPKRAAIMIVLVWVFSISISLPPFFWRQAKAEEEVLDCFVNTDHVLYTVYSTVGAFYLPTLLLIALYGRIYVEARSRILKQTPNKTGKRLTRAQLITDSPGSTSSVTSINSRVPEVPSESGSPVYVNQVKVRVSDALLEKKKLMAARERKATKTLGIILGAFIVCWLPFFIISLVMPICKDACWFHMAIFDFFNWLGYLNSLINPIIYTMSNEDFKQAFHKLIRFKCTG

[3] = molecular target: T1, Alpha-1A adrenergic receptor (Bos taurus, UniProt P18130); test: Binding affinity against alpha-1 adrenergic receptor in calf frontal cortex; assay type: tissue-based
T1 sequence (P18130 whole entry): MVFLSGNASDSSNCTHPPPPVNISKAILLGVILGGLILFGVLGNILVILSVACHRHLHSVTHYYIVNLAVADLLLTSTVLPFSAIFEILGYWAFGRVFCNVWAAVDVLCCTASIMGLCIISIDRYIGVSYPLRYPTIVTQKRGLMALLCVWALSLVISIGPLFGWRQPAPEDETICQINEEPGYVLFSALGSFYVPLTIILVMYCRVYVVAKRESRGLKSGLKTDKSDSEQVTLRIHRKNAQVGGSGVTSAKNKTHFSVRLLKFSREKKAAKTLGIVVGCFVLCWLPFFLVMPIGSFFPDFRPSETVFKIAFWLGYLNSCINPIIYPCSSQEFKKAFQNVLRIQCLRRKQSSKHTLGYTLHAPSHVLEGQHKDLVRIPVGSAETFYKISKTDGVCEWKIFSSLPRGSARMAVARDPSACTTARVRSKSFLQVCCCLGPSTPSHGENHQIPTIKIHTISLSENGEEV

D(2) dopamine receptor = D(2) dopamine receptor (Bos taurus, UniProt P20288); test: Binding affinity against D2 receptor in calf caudate nucleus
Chain of D(2) dopamine receptor (P20288 whole entry): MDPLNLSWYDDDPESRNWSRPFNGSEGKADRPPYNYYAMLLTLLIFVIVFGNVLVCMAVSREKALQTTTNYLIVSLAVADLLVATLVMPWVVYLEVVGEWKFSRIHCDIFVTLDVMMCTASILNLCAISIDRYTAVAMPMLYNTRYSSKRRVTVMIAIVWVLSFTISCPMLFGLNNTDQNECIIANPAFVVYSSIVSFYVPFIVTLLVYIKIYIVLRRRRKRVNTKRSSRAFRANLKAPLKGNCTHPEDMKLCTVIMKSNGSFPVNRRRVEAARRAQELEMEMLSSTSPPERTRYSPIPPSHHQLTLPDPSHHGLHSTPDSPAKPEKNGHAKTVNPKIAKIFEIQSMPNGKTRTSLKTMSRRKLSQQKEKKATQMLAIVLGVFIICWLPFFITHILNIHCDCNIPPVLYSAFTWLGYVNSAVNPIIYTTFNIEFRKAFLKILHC

[4] = molecular target: T2, Alpha-2A adrenergic receptor (Bos taurus, UniProt Q28838); test: Binding affinity against alpha-2 adrenergic receptor in calf frontal cortex; assay type: tissue-based
T2 sequence (Q28838 whole entry): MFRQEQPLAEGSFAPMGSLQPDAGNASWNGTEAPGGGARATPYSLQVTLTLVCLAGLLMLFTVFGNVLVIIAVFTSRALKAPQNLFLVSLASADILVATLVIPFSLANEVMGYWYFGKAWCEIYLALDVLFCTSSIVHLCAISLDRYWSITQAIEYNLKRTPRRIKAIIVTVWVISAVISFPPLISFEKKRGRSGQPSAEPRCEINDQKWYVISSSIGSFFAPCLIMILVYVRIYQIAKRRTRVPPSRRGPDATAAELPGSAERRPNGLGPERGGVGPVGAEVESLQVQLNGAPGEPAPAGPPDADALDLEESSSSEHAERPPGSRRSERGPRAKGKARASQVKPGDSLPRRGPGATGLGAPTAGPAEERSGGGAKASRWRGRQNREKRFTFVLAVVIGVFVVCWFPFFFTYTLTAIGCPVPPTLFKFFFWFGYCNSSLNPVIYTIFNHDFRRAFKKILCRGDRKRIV

[5] = molecular target: T3, 5-hydroxytryptamine receptor 1A (Rattus norvegicus, UniProt P19327); test: Binding affinity against 5-hydroxytryptamine 1A (5-HT1A) receptor in rat hippocampus membranes; assay type: cell membranes, Membrane
T3 sequence (P19327 whole entry): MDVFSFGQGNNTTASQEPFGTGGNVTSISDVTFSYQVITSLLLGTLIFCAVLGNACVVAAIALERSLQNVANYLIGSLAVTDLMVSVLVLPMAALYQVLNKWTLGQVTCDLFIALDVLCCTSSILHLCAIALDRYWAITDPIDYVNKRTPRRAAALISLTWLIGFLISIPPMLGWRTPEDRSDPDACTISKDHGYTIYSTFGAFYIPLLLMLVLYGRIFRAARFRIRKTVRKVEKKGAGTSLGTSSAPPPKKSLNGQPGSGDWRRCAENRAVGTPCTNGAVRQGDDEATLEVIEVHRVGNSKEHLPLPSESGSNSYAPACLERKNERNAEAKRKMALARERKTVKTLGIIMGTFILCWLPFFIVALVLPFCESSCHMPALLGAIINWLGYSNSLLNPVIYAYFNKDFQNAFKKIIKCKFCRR

Chain of 5-hydroxytryptamine receptor 2A (Q75Z89 whole entry): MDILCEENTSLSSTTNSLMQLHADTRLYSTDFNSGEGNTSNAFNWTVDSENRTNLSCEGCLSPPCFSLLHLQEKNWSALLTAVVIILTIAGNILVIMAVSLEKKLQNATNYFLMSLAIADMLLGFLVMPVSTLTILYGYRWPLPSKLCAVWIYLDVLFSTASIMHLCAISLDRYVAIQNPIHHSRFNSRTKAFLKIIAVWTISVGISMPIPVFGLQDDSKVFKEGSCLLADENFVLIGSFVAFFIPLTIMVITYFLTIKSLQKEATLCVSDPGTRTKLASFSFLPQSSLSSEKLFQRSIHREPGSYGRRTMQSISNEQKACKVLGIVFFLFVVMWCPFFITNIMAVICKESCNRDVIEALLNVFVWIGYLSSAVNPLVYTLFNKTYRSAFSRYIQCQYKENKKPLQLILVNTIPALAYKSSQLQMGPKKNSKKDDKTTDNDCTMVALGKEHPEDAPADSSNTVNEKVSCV

SMILES | IC50 [1] | IC50 (D(1A) dopamine receptor) | IC50 [2] | IC50 [3] | IC50 (D(2) dopamine receptor) | IC50 [4] | IC50 [5]
CCCN(CCCCN1C(=O)c2ccccc2C1=O)C1COc2cccc(OC)c2C1 (configuration not stated) | 30 µM | 40 µM | 0.4 µM | 5 µM | 0.03 µM | 2 µM | 0.05 µM
CCCN(CCC)C1COc2cccc(O)c2C1 (configuration not stated) | > 100 µM | 100 µM | > 100 µM | 100 µM | 0.4 µM | 2 µM | 0.004 µM
COc1cccc2c1CC(N1CCCC1)CO2 (configuration not stated) | 60 µM | 1000 µM | 100 µM | 40 µM | 2.5 µM | 3 µM | 0.007 µM
CCCN(CCCNS(=O)(=O)c1ccc(C)cc1)C1COc2cccc(OC)c2C1 (configuration not stated) | 6 µM | 20 µM | 2 µM | 3 µM | 0.03 µM | 0.5 µM | 0.003 µM
COc1cccc2c1CC(NCCCCN1C(=O)c3ccccc3C1=O)CO2 (configuration not stated) | 0.6 µM | 30 µM | 7 µM | 1000 µM | 5 µM | 4 µM | 0.09 µM
CCCN(CCC)C1COc2ccc3ccccc3c2C1 (configuration not stated) | 10 µM | 40 µM | 30 µM | 2 µM | 0.1 µM | 10 µM | 20 µM
CCCN(CCC)C1COc2cccc(OC)c2C1 (stereo in doubt; 4) | 60 µM | 100 µM | 20 µM | 80 µM | 0.05 µM | 4 µM | 0.02 µM
CCC[N+](C)(CCCCN1C(=O)CC2(CCCC2)CC1=O)C1COc2cccc(OC)c2C1 (configuration not stated) | > 1000 µM | 100 µM | > 1000 µM | 70 µM | 1 µM | 1000 µM | 0.3 µM
COc1cccc2c1CC(NCCCCN1C(=O)CC3(CCCC3)CC1=O)CO2 (configuration not stated) | 1 µM | 20 µM | 20 µM | 10 µM | 0.9 µM | 20 µM | 0.02 µM
CCCN(CCCCNC(=O)c1ccccc1OC)C1COc2cccc(OC)c2C1 (configuration not stated) | 4 µM |  | 1 µM | 3 µM | 0.01 µM | 0.1 µM | 0.001 µM
CCCN(CCN1C(=O)CC2(CCCC2)CC1=O)C1COc2cccc(OC)c2C1 (configuration not stated) | > 1000 µM | > 1000 µM | > 1000 µM | > 1000 µM | 3 µM | > 1000 µM | 0.03 µM
CCCN(CCCCN1C(=O)CC2(CCCC2)CC1=O)C1COc2cccc(O)c2C1 (configuration not stated) | 4 µM | 100 µM | 30 µM | 10 µM | 0.008 µM | 20 µM | 0.001 µM
CCCN(CCCCNC(=O)c1ccc(F)cc1)C1COc2cccc(OC)c2C1 (configuration not stated) | 3 µM | 20 µM | 3 µM | 2 µM | 0.007 µM | 4 µM | 0.0004 µM
CCCN(CCCCN1CCOCC1)C1COc2cccc(OC)c2C1 (configuration not stated) | 10 µM | 100 µM | > 1000 µM | 10 µM | 0.03 µM | 4 µM | 0.008 µM
CCCN(CCCCNS(=O)(=O)c1ccc(C)cc1)C1COc2cccc(OC)c2C1 (stereo in doubt; 15d) | 10 µM | 30 µM | 8 µM | 3 µM | 0.2 µM | 10 µM | 0.002 µM
CCCN(CCCON1C(=O)CC2(CCCC2)CC1=O)C1COc2cccc(OC)c2C1 (configuration not stated) | 4 µM | 20 µM | 40 µM | 9 µM | 0.02 µM | 2 µM | 0.001 µM
CCCN(CCCCCN1C(=O)CC2(CCCC2)CC1=O)C1COc2cccc(OC)c2C1 (configuration not stated) | 3 µM | 60 µM | 20 µM | 5 µM | 60 µM | 0.1 µM | 0.001 µM
CCCN(CCCCN1C(=O)CC2(CCCC2)CC1=O)C1COc2ccccc2C1 (configuration not stated) | 2 µM | 40 µM | 30 µM | 7 µM | 0.004 µM | 10 µM | 0.002 µM
O=C1c2ccccc2S(=O)(=O)N1CCCCN1CCN(c2ncccn2)CC1 [IPSAPIRONE] | 7.5 µM | 12 µM | 50 µM | 1.2 µM | > 1000 µM | 2.8 µM | 0.035 µM
CCCN(CCCCN1C(=O)C2CCCC2C1=O)C1COc2cccc(OC)c2C1 (single isomer, unassigned; (-)) | 3 µM | 30 µM | 30 µM | 8 µM | 0.01 µM | 5 µM | 0.001 µM
CCCN(CCNS(=O)(=O)c1ccc(C)cc1)C1COc2cccc(OC)c2C1 (stereo in doubt; 15b) | 1 µM | 50 µM | > 1000 µM | 100 µM | 0.1 µM | > 1000 µM | 0.002 µM
CCCN(CCNS(=O)(=O)c1ccc(C)cc1)C1COc2cccc(OC)c2C1 (stereo in doubt; (-)-15b) | 10 µM | 60 µM | > 1000 µM | 1000 µM | 0.05 µM | 10 µM | 0.005 µM
CCCN(CCNC(C)=O)C1COc2cccc(OC)c2C1 (configuration not stated) | > 1000 µM | > 1000 µM | 60 µM | > 1000 µM | 0.6 µM | 10 µM | 0.04 µM
CCCN(CCCCN1CCCCC1)C1COc2cccc(OC)c2C1 (configuration not stated) | > 1000 µM | 100 µM | 50 µM | 5 µM | 0.02 µM | 10 µM | 0.002 µM
O=C1CC2(CCCC2)CC(=O)N1CCCCN1CCN(c2ncccn2)CC1 [BUSPIRONE] | 10 µM | 27 µM |  | 16 µM | 4 µM | 10 µM | 
CCCN(CCCCN1C(=O)CC(C)(C)CC1=O)C1COc2cccc(OC)c2C1 (configuration not stated) | 6 µM | 80 µM | 10 µM | 6 µM | 0.04 µM | 0.4 µM | 0.004 µM
CCCN(CCCCN1CC2CCCC2C1=O)C1COc2cccc(OC)c2C1 (configuration not stated) | 2 µM | 60 µM | 30 µM | 5 µM | 0.003 µM | 4 µM | 0.001 µM
CCCN(CCCCN1C(=O)C2CCCC2C1=O)C1COc2cccc(OC)c2C1 (stereo in doubt; 9k) | 9 µM | 40 µM | 20 µM | 7 µM | 0.02 µM | 5 µM | 0.002 µM
CCCN(CCC)C1COc2cccc(OC)c2C1 (single isomer, unassigned; (+)) | 9.7 µM | > 1000 µM | 0.51 µM | 2.3 µM | 0.14 µM | 9.1 µM | 0.002 µM
CCCN(CCCCNS(=O)(=O)c1ccc(C)cc1)C1COc2cccc(OC)c2C1 (single isomer, unassigned; (+)) | 8 µM | 20 µM | 9 µM | 3 µM | 0.1 µM | 2 µM | 0.0007 µM
